Measured values from EP0211573A1, “Novel antimicrobial active agent and its production” (NICHIREI CORPORATION, priority 1985, dated 1987).
Entries after “also recorded” stand apart in the source; their conditions may differ.

Tests used:
Bacillus subtilis = experiment: Paper disc agar antimicrobial activity assay (inhibitory zone); format: cell-based; set-up: key to Diameter of inhibitory zone: ±: inhibitory zone slightly observed; +: inhibitroy zone < 7mm; details: paper disc 6 mm, 37 °C, 12 hours incubation
Protocol: (§1) The compound (Ia) dissolved in chloroform is immersed in paper disc, diameter 6 mm, and dried on a filter paper. Microbial strains shown in Table 1 are inoculated in agar medium, and paper discs hereinabove 1) are placed thereon then incubated at the temperature shown in the Table. Diameter of inhibitory zone is measured after 12 hours incubation.

Escherichia coli = experiment: as above; format: cell-based; set-up: key to Diameter of inhibitory zone: ±: inhibitory zone slightly observed; +: inhibitroy zone < 7mm; details: paper disc 6 mm, 37 °C, 12 hours incubation
Protocol: as §1

Sarcina lutea = experiment: as above; format: cell-based; set-up: key to Diameter of inhibitory zone: ±: inhibitory zone slightly observed; +: inhibitroy zone < 7mm; details: paper disc 6 mm, 37 °C, 12 hours incubation
Protocol: as §1

Saccharomyces sake = experiment: as above; format: cell-based; details: paper disc 6 mm, 27 °C, 12 hours incubation, read-out: Diameter of inhibitory zone
Protocol: as §1

Staphylococcus aureus = experiment: as above; format: cell-based; details: paper disc 6 mm, 37 °C, 12 hours incubation, read-out: Diameter of inhibitory zone
Protocol: as §1

[1] = Acute toxicity, intraperitoneal administration; details: mouse, in vivo, ip, mice, in physiological saline containing gum arabic, read-out: LD₅₀
Protocol: A compound, 1 - 5 mg, dissolved in physiological saline 0.2 ml containing gum arabic is administered intra peritoneally in mice, body weight 25 g, 10 mice in one group. LD₅₀ is over 200 mg/kg.

[2] = Physico-chemical properties (solubility, nature); format: physicochemical

SMILES: COC1=C(OC)C(=O)c2c(O)c3c(c(O)c2C1=O)OCO3 [Ia, 5,8-dihydroxy-2,3-dimethoxy-6,7-methylenedioxy-1,4-naphthoquinone]
- zone of inhibition at 14 µg/mL (Bacillus subtilis; Bacillus subtilis, sample density 14 μg/m ℓ, read-out: Diameter of inhibitory zone): 7.1 mm
- zone of inhibition at 28 µg/mL (Bacillus subtilis; Bacillus subtilis, sample density 28 μg/m ℓ, read-out: Diameter of inhibitory zone): 9.5 mm
- zone of inhibition at 56 µg/mL (Bacillus subtilis; Bacillus subtilis, sample density 56 μg/m ℓ, read-out: Diameter of inhibitory zone): 8.6 mm
- zone of inhibition at 112 µg/mL (Bacillus subtilis; Bacillus subtilis, sample density 112 μg/m ℓ, read-out: Diameter of inhibitory zone): 13.3 mm
- zone of inhibition at 224 µg/mL (Bacillus subtilis; Bacillus subtilis, sample density 224 μg/m ℓ, read-out: Diameter of inhibitory zone): 13.3 mm
- zone of inhibition at 448 µg/mL (Bacillus subtilis; Bacillus subtilis, sample density 448 μg/m ℓ, read-out: Diameter of inhibitory zone): 15.5 mm
- Diameter of inhibitory zone (Bacillus subtilis; sample density 7 μg/m ℓ): ±**
- zone of inhibition at 112 µg/mL (Escherichia coli; Escherichia coli, sample density 112 μg/m ℓ, read-out: Diameter of inhibitory zone): < 7 mm
- zone of inhibition at 224 µg/mL (Escherichia coli; Escherichia coli, sample density 224 μg/m ℓ, read-out: Diameter of inhibitory zone): < 7 mm
- zone of inhibition at 448 µg/mL (Escherichia coli; Escherichia coli, sample density 448 μg/m ℓ, read-out: Diameter of inhibitory zone): < 7 mm
- Diameter of inhibitory zone (Escherichia coli; sample density 56 μg/m ℓ): ±
- zone of inhibition at 56 µg/mL (Sarcina lutea; Micrococcus luteus, sample density 56 μg/m ℓ, read-out: Diameter of inhibitory zone): < 7 mm
- zone of inhibition at 112 µg/mL (Sarcina lutea; Micrococcus luteus, sample density 112 μg/m ℓ, read-out: Diameter of inhibitory zone): 7.4 mm
- zone of inhibition at 224 µg/mL (Sarcina lutea; Micrococcus luteus, sample density 224 μg/m ℓ, read-out: Diameter of inhibitory zone): 7.4 mm
- zone of inhibition at 448 µg/mL (Sarcina lutea; Micrococcus luteus, sample density 448 μg/m ℓ, read-out: Diameter of inhibitory zone): 7.4 mm
- Diameter of inhibitory zone (Sarcina lutea; sample density 14 μg/m ℓ): ±
- Diameter of inhibitory zone (Sarcina lutea; sample density 28 μg/m ℓ): ±
- zone of inhibition at 56 µg/mL (Saccharomyces sake; sample density 56 μg/m ℓ): < 7 mm
- zone of inhibition at 224 µg/mL (Saccharomyces sake; sample density 224 μg/m ℓ): 7 mm
- zone of inhibition at 448 µg/mL (Saccharomyces sake; sample density 448 μg/m ℓ): 7.3 mm
- zone of inhibition at 28 µg/mL (Staphylococcus aureus; sample density 28 μg/m ℓ): < 7 mm
- zone of inhibition at 56 µg/mL (Staphylococcus aureus; sample density 56 μg/m ℓ): < 7 mm
- zone of inhibition at 112 µg/mL (Staphylococcus aureus; sample density 112 μg/m ℓ): < 7 mm
- zone of inhibition at 224 µg/mL (Staphylococcus aureus; sample density 224 μg/m ℓ): 7.7 mm
- zone of inhibition at 448 µg/mL (Staphylococcus aureus; sample density 448 μg/m ℓ): 8.45 mm
- LD50 [1]: > 200 mg/kg
- nature [2]: acidic substance (water soluble under alkaline conditions)
- solubility ([2]; acidic conditions, in organic solvent): soluble
- solubility ([2]; acidic conditions, in water): insoluble
- solubility ([2]; alkaline conditions, in organic solvents): insoluble
- solubility ([2]; alkaline conditions, in water): easily soluble; also recorded: easily soluble under neutral and acidic conditions in organic solvents such as methanol, acetone, ethyl acetate, chloroform or benzene; easily soluble under alkaline conditions in water
- solubility ([2]; neutral and acidic conditions, in organic solvents such as methanol, acetone, ethyl acetate, chloroform or benzene): easily soluble; also recorded: easily soluble under neutral and acidic conditions in organic solvents such as methanol, acetone, ethyl acetate, chloroform or benzene; easily soluble under alkaline conditions in water
